Measured values taken from patent publication US8822449B2, “Substituted aminoindanes and analogs thereof, and the pharmaceutical use thereof” (Sanofi, priority 2008, dated 2014).

molecular target: T1, sodium-proton exchanger of subtype 3 (NHE3) (Homo sapiens, UniProt P48764); assay: Recovery of intracellular pH (pHi) after acidification in LAP1 cells stably expressing NHE3 (BCECF fluorescence, FLIPR); assay type: cell-based; details: LAP1 cells stably expressing NHE3; pH recovery after acidification; range 1 is % inhibition at 10 μM; read-out: Activity range (inhibitory effect on NHE3)
T1 construct: expressed in transfected cells
T1 sequence (P48764 26-834): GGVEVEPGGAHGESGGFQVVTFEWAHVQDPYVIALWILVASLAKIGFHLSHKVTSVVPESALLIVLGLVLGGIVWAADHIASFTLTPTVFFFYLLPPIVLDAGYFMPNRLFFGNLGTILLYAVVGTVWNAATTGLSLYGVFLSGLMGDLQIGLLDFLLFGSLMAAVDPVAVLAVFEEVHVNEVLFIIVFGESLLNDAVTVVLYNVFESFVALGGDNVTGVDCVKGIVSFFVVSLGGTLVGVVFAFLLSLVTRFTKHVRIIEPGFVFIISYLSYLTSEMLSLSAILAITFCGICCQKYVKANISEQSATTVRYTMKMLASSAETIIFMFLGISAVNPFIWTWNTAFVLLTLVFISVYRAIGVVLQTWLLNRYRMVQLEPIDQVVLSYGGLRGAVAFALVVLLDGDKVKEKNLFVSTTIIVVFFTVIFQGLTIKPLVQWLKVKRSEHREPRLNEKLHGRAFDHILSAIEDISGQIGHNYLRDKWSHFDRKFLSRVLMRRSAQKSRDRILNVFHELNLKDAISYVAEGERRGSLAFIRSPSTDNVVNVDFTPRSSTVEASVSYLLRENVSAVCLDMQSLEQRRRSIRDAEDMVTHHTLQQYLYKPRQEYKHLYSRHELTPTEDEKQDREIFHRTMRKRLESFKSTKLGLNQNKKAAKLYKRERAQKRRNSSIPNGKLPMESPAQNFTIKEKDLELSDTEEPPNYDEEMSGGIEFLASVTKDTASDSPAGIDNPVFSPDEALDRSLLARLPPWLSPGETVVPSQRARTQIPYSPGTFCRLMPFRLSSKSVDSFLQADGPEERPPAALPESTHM

Structure (SMILES)	IC50	inhibition at 10 µM
CS(=O)(=O)c1ccc(O[C@H]2c3cc(Cl)cc(Cl)c3C[C@@H]2N2CC[C@H](N)C2)cc1 [Example 199, (S)-1-[trans-(1S,2S)-4,6-dichloro-1-(4-methanesulfonylphenoxy)indan-2-yl]pyrrolidin-3-ylamine]	< 1 µM	
Cc1nnc(C)n1-c1ccc(O[C@H]2c3cc(Cl)ccc3C[C@@H]2N2CCS(=O)(=O)CC2)c(Cl)c1 [Example 567, 4-{trans-(1S,2S)-6-chloro-1-[2-chloro-4-(3,5-dimethyl-[1,2,4]triazol-4-yl)phenoxy]indan-2-yl}thiomorpholine 1,1-dioxide]	1 to 10 µM	
Cc1nnc(C)n1-c1ccc(O[C@H]2c3cc(Cl)cc(F)c3C[C@@H]2NC2CCCC2)c(F)c1 [Example 749, {trans-(1S,2S)-6-Chloro-1-[4-(3,5-dimethyl-[1,2,4]triazol-4-yl)-2-fluoro-phenoxy]-4-fluoro-indan-2-yl}-cyclopentyl-amine]	1 to 10 µM	
CN1CCN([C@H]2Cc3c(Cl)cc(Cl)cc3[C@@H]2Oc2ccc(-n3ccnc3)cc2)CC1 [Example 297, 1-[trans-(1S,2S)-4,6-dichloro-1-(4-imidazol-1-ylphenoxy)indan-2-yl]-4-methylpiperazine]		20 to 50%
Cc1cn(-c2ccc(O[C@H]3c4cc(Cl)cc(Cl)c4C[C@@H]3N3CC[C@@H](O)C3)cc2)c(C(C)C)n1 [Example 714, (R)-1-{trans-(1S,2S)-4,6-Dichloro-1-[4-(2-isopropyl-4-methyl-imidazol-1-yl)-phenoxy]-indan-2-yl}-pyrrolidin-3-ol]	1 to 10 µM	
Fc1ccc(O[C@@H]2c3ccccc3C[C@H]2N2C[C@H]3CNC[C@H]3C2)c(F)c1 (racemic) [Example 9, 2-[rac-trans-(1,2)-1-(2,4-difluorophenoxy)indan-2-yl]octahydropyrrolo[3,4-c]pyrrole]	1 to 10 µM	
CS(=O)(=O)c1ccc(O[C@H]2c3cc(Cl)ccc3C[C@@H]2N2CCN(CCO)CC2)cc1 (racemic) [Example 384, 2-{4-[rac-trans-(1,2)-6-chloro-1-(4-methanesulfonylphenoxy)indan-2-yl]piperazin-1-yl}-ethanol]		20 to 50%
COc1cccc(F)c1O[C@@H]1c2ccccc2C[C@H]1N1CCC(CN)CC1 (racemic) [Example 604, C-{1-[rac-trans-(1,2)-1-(2-fluoro-6-methoxyphenoxy)indan-2-yl]piperidin-4-yl}methylamine]	< 1 µM	
CS(=O)(=O)c1ccc(O[C@H]2c3cc(Cl)cc(Cl)c3C[C@@H]2N2CCC(N)(C(F)(F)F)C2)cc1 (mixture of isomers) [Example 302, 1-[trans-(1S,2S)-4,6-dichloro-1-(4-methanesulfonylphenoxy)indan-2-yl]-3-trifluoromethylpyrrolidin-3-ylamine]		20 to 50%
COC(=O)c1ccc(O[C@H]2c3cc(Cl)ccc3C[C@@H]2N2CC[C@@H](O)C2)c(Cl)c1 [Example 446, 3-chloro-4-[trans-(1S,2S)-6-chloro-2-((R)-3-hydroxypyrrolidin-1-yl)indan-1-yloxy]benzoic acid methyl ester]		20 to 50%
CS(=O)(=O)c1ccc(O[C@H]2c3cc(Cl)cc(Cl)c3C[C@@H]2N2CC[C@@H](N)C2)cc1 [Example 104, (R)-1-[trans-(1S,2S)-4,6-dichloro-1-(4-methanesulfonylphenoxy)indan-2-yl]pyrrolidin-3-ylamine]	< 1 µM	
COCCN1CCCN([C@H]2Cc3c(Cl)cc(Cl)cc3[C@@H]2Oc2ccc(-n3c(C)nnc3C)cc2)CC1 [Example 348, 1-{trans-(1S,2S)-4,6-dichloro-1-[4-(3,5-dimethyl-[1,2,4]triazol-4-yl)phenoxy]indan-2-yl}-4-(2-methoxyethyl)-[1,4]diazepane]	< 1 µM	
N[C@@H]1CCCN([C@@H]2Cc3ccccc3[C@H]2Oc2ccc(N3CCNCC3)cc2)C1 (racemic) [Example 76, (R)-1-[rac-trans-(1,2)-1-(4-piperazin-1-ylphenoxy)indan-2-yl]piperidin-3-ylamine]	1 to 10 µM	
CCc1nc(C)cn1-c1ccc(O[C@H]2c3cc(Cl)cc(F)c3C[C@@H]2N2CC[C@@H](O)C2)cc1 [Example 719, (R)-1-{trans-(1S,2S)-6-Chloro-1-[4-(2-ethyl-4-methyl-imidazol-1-yl)-phenoxy]-4-fluoro-indan-2-yl}-pyrrolidin-3-ol]	1 to 10 µM	
c1ccc2c(c1)CC[C@H](N1CCOCC1)[C@H]2Oc1cccc2ncccc12 (racemic) [Example 570, 5-(rac-trans-(1,2)-2-morpholin-4-yl-1,2,3,4-tetrahydronaphthalen-1-yloxy)quinoline]		20 to 50%
N[C@H]1CCCN([C@H]2CCc3ccccc3[C@@H]2Oc2cccc3ncccc23)C1 (racemic) [Example 193, (S)-1-[rac-trans-(1,2)-1-(quinolin-5-yloxy)-1,2,3,4-tetrahydronaphthalen-2-yl]piperidin-3-ylamine]	1 to 10 µM	

Next, values leading:

IC50	inhibition at 10 µM	Structure (SMILES)
< 1 µM		CS(=O)(=O)c1nccn1-c1ccc(O[C@H]2c3cc(Cl)cc(Cl)c3C[C@@H]2N2CC[C@@H](O)C2)cc1 [Example 731, (R)-1-{trans-(1S,2S)-4,6-Dichloro-1-[4-(2-methanesulfonyl-imidazol-1-yl)-phenoxy]-indan-2-yl}-pyrrolidin-3-ol]
	20 to 50%	N[C@@H]1CCCN([C@H]2CCc3ccccc3[C@@H]2Oc2cccc(F)c2)C1 (racemic) [Example 57, (R)-1-[rac-trans-(1,2)-1-(3-fluorophenoxy)-1,2,3,4-tetrahydronaphthalen-2-yl]piperidin-3-ylamine]
1 to 10 µM		CC(=O)Nc1ccc(S[C@H]2c3cc(Cl)cc(Cl)c3C[C@@H]2N2CC[C@@H](O)C2)cc1 [Example 699, N-{4-[(1S,2S)-4,6-dichloro-2-((R)-3-hydroxypyrrolidin-1-yl)indan-1-ylsulfanyl]phenyl}acetamide]
	20 to 50%	Cc1ccc(O[C@H]2c3ccccc3CC[C@@H]2N2CCC[C@@H](N)C2)c(Br)c1 (racemic) [Example 35, (R)-1-[rac-trans-(1,2)-1-(2-bromo-4-methylphenoxy)-1,2,3,4-tetrahydronaphthalen-2-yl]piperidin-3-ylamine]
1 to 10 µM		Cc1nn(C)c(C)c1-c1ccc(O[C@H]2c3cc(Cl)cc(Cl)c3C[C@@H]2N2CC[C@@H](O)C2)cc1 [Example 124, (R)-1-{trans-(1S,2S)-4,6-dichloro-1-[4-(1,3,5-trimethyl-1H-pyrazol-4-yl)phenoxy]indan-2-yl}pyrrolidin-3-ol]
1 to 10 µM		NC1CCN([C@@H]2Cc3ccccc3[C@H]2Oc2ccc(Br)cc2-c2cc[nH]n2)CC1 (racemic) [Example 343, 1-{rac-trans-(1,2)-1-[4-bromo-2-(1H-pyrazol-3-yl)phenoxy]indan-2-yl}piperidin-4-ylamine]
	20 to 50%	Clc1cnccc1O[C@H]1c2ccccc2C[C@@H]1CN1CCOCC1 (racemic) [Example 486, 4-[1-(3-chloropyridin-4-yloxy)indan-2-ylmethyl]morpholine]
	20 to 50%	N[C@@H]1CCCN([C@H]2CCc3ccccc3[C@@H]2Oc2ccc(F)c(Cl)c2)C1 (racemic) [Example 52, (R)-1-[rac-trans-(1,2)-1-(3-chloro-4-fluorophenoxy)-1,2,3,4-tetrahydronaphthalen-2-yl]piperidin-3-ylamine]
1 to 10 µM		Cn1ccn(-c2ccc(F)c(O[C@H]3c4cc(F)cc(F)c4C[C@@H]3N3CC[C@@H](O)C3)c2)c1=O [Example 317, 1-{3-[(1S,2S)-4,6-difluoro-2-((R)-3-hydroxypyrrolidin-1-yl)indan-1-yloxy]-4-fluorophenyl}-3-methyl-1,3-dihydroimidazol-2-one]
	20 to 50%	Cc1noc(C)c1-c1cc(F)ccc1O[C@H]1c2ccccc2C[C@@H]1N1CCCC1 [Example 503, 4-[5-fluoro-2-(trans-(1S,2S)-2-pyrrolidin-1-ylindan-1-yloxy)phenyl]-3,5-dimethylisoxazole]
1 to 10 µM		COc1ccc(C)cc1O[C@@H]1c2ccccc2C[C@H]1N1CCC(CN)CC1 (racemic) [Example 606, C-{1-[rac-trans-(1,2)-1-(2-methoxy-5-methylphenoxy)indan-2-yl]piperidin-4-yl}methylamine]
	20 to 50%	N#Cc1ccc2cccc(O[C@H]3c4ccccc4CC[C@@H]3N3CCOCC3)c2n1 (racemic) [Example 594, 8-(rac-trans-(1,2)-2-morpholin-4-yl-1,2,3,4-tetrahydronaphthalen-1-yloxy)quinoline-2-carbonitrile]
1 to 10 µM		Cc1c(Cl)ccc(O[C@@H]2c3ccccc3C[C@H]2N2C[C@H]3CNC[C@H]3C2)c1Cl (racemic) [Example 4, 2-[rac-trans-(1,2)-1-(2,4-dichloro-3-methylphenoxy)indan-2-yl]octahydropyrrolo[3,4-c]pyrrole]
1 to 10 µM		c1ccc2c(c1)C[C@@H](N1C[C@H]3CNC[C@H]3C1)[C@@H]2Oc1ccc2ccncc2c1 (racemic) [Example 589, 7-[rac-trans-(1,2)-2-(Hexahydropyrrolo[3,4-c]pyrrol-2-yl)indan-1-yloxy]isoquinoline]
